Results on 25 molecules are retold here after patent US10501449B2 (priority 2018, dated 2019).

Structures are written as SMILES.

One data set concerns the target hROMK (human Kir1.1) (Homo sapiens (Human), UniProt P48048). Nature of the data set: cell-based. To be noted: CHO T-Rex hROMK stable cell line; thallium flux; 10-point concentration response curve; read-out: Human ROMK Th Flux IC50.
A further data set has as its target hERG channels (Homo sapiens (Human), UniProt Q12809). The experiment in a line: hERG Manual Patch Clamp Assay. Format: cell-based. The note with it: human, HEK 293 cells stably expressing hERG channels, pH 7.4, 1 uM, read-out: hERG EP % Inh @ 1 uM. (In general: hERG is a cardiac potassium channel; its block is linked to QT prolongation.)

As a reminder, the IC50 is the concentration needed to halve the response being measured.

hROMK (human Kir1.1), sequence (P48048 whole entry): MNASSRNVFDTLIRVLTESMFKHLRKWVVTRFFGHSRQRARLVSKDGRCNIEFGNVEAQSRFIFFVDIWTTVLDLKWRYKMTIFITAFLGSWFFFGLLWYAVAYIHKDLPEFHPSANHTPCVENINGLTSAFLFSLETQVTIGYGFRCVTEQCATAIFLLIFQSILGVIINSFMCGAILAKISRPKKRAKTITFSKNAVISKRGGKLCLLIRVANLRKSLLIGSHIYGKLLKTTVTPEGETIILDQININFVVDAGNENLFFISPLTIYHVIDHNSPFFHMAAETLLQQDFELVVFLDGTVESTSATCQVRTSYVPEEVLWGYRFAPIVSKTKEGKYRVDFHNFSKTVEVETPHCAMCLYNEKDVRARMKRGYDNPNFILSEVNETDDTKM
hERG channels, sequence (Q12809 whole entry): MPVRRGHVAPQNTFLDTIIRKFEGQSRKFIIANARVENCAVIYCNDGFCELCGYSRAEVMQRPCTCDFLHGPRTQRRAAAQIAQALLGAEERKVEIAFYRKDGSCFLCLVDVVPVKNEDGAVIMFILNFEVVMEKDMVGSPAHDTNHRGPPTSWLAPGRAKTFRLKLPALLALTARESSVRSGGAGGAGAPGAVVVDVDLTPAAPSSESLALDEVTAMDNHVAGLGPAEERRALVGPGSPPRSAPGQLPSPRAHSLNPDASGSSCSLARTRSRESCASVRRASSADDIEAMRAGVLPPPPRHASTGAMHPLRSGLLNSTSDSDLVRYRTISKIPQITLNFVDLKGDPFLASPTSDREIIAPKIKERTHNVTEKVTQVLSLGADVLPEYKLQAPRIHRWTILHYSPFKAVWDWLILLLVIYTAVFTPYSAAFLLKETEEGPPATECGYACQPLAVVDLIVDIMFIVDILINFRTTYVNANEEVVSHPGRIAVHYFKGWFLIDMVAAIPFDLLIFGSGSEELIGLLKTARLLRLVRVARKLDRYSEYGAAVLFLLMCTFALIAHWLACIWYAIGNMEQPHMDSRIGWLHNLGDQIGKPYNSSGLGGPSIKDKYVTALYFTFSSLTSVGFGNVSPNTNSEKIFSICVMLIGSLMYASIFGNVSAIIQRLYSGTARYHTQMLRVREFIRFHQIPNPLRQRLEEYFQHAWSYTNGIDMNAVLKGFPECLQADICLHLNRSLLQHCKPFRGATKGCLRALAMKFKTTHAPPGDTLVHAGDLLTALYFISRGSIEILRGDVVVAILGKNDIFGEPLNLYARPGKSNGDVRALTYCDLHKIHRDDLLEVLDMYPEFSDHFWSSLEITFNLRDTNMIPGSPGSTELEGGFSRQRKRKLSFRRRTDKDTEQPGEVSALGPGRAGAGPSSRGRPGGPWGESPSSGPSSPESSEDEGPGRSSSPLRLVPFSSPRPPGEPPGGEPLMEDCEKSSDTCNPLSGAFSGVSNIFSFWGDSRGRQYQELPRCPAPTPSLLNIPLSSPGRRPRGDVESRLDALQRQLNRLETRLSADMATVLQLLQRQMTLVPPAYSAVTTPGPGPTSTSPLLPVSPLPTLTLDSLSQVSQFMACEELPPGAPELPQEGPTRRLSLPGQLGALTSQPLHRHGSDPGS

`COc1c(CN2CCN[C@H](c3ccc4c(c3C)COC4=O)C2)cnn1-c1cc(C)c(C#N)cn1` [Example 6-I, (R)-6-(5-methoxy-4-((3-(4-methyl-1-oxo-1,3-dihydroisobenzofuran-5-yl)piperazin-1-yl)methyl)-1H-pyrazol-1-yl)-4-methylnicotinonitrile]: the IC50 at hROMK (human Kir1.1) came out at 40 nM. For the same molecule, the inhibition at 1 µM on hERG channels was found to be 38%.
The matching figures for `Cc1cc(-n2cc(CN3C[C@@H](c4ccc5c(c4C)COC5=O)OC3=O)cn2)ncc1C#N` [Example 9-I, (R)-4-methyl-6-(4-((5-(4-methyl-1-oxo-1,3-dihydroisobenzofuran-5-yl)-2-oxooxazolidin-3-yl)methyl)-1H-pyrazol-1-yl)nicotinonitrile]: 44 nM and 47%.
The matching figures for `COc1cc(-n2cc(CCN3CCO[C@H](c4ccc5c(c4C)COC5=O)C3)cn2)ncc1C#N` [Example 11-I, (R)-4-methoxy-6-(4-(2-(2-(4-methyl-1-oxo-1,3-dihydroisobenzofuran-5-yl)morpholino)ethyl)-1H-pyrazol-1-yl)nicotinonitrile]: 30 nM and 40%.
As to `Cc1c([C@@H]2CN(Cc3cnc(-n4cnc(C#N)c4)s3)CCN2)ccc2c1COC2=O` [Example 21-I, (R)-1-(5-((3-(4-methyl-1-oxo-1,3-dihydroisobenzofuran-5-yl)piperazin-1-yl)methyl)thiazol-2-yl)-1H-imidazole-4-carbonitrile], the IC50 at hROMK (human Kir1.1) amounted to 93 nM. On hERG channels, the inhibition at 1 µM was determined as 8.5%.
For `Cc1c([C@@H]2CN(Cc3cnn(-c4ccc5oc(=O)n(C)c5c4)c3)CCO2)ccc2c1COC2=O` [Example 25-I, (R)-3-methyl-5-(4-((2-(4-methyl-1-oxo-1,3-dihydroisobenzofuran-5-yl)morpholino)methyl)-1H-pyrazol-1-yl) benzo[d]oxazol-2(3H)-one], on hROMK (human Kir1.1), the IC50 turned out to be 51 nM. For the same molecule, the inhibition at 1 µM at hERG channels came out at 8.7%.
The matching figures for `COc1c(CN2CCO[C@H](c3ccc4c(c3C)COC4=O)C2)cnn1-c1cc(C)c(C#N)cn1` [Example 26-I, (R)-6-(5-methoxy-4-((2-(4-methyl-1-oxo-1,3-dihydroisobenzofuran-5-yl)morpholino)methyl)-1H-pyrazol-1-yl)-4-methylnicotinonitrile]: 69 nM and 20%.
In the case of `COc1cc(-n2cnc(CN3CCO[C@H](c4ccc5c(c4C)COC5=O)C3)c2)ncc1C#N` [Example 27-I, (R)-4-methoxy-6-(4-((2-(4-methyl-1-oxo-1,3-dihydroisobenzofuran-5-yl)morpholino)methyl)-1H-imidazol-1-yl) nicotinonitrile], the IC50 on hROMK (human Kir1.1) was 32 nM. Besides, the inhibition at 1 µM on hERG channels was determined as 11%.
The matching figures for `Cc1c([C@@H]2CN(Cc3cn(-c4ccc(C#N)cn4)cn3)CCO2)ccc2c1COC2=O` [Example 28-I, (R)-6-(4-((2-(4-methyl-1-oxo-1,3-dihydroiso-benzofuran-5-yl)morpho-lino)methyl)-1H-imidazol-1-yl)nicotino-nitrile]: 85 nM and 15%.
As for `COc1cc(-c2ncc(CN3CCO[C@H](c4ccc5c(c4C)COC5=O)C3)s2)ncc1C#N` [Example 32-I, (R)-4-methoxy-6-(5-((2-(4-methyl-1-oxo-1,3-dihydroisobenzofuran-5-yl)morpholino)methyl)thiazol-2-yl)nicotino-nitrile], the half-maximal inhibitory concentration (IC50) on hROMK (human Kir1.1) came out at 24 nM. Besides, the inhibition at 1 µM at hERG channels stood at 6.2%.
The matching figures for `COc1cc(-c2ccc(CN3CCO[C@H](c4ccc5c(c4C)COC5=O)C3)cn2)ncc1C#N` [Example 35-I, (R)-4-methoxy-5′-((2-(4-methyl-1-oxo-1,3-di-hydroisobenzofuran-5-yl)morpholino)methyl)-[2,2′-bipyridine]-5-carbonitrile]: 120 nM and 20%.
The matching figures for `Cc1c([C@@H]2CN(Cc3ccc(-n4cnc(C#N)c4)nc3)CCO2)ccc2c1COC2=O` [Example 37-I, (R)-1-(5-((2-(4-methyl-1-oxo-1,3-dihydroiso-benzofuran-5-yl)morpho-lino)methyl)pyridin-2-yl)-1H-imidazole-4-carbonitrile]: 16 nM and 6.2%.
On to `Cc1c([C@@H]2CN(Cc3cnn(-c4ccc(C#N)cc4)c3)CCO2)ccc2c1COC2=O` [Example 40-I, (R)-4-(4-((2-(4-methyl-1-oxo-1,3-dihydroiso-benzofuran-5-yl)morpho-lino)methyl)-1H-pyrazol-1-yl)benzonitrile], for which the IC50 on hROMK (human Kir1.1) was found to be 27 nM. Further, on hERG channels, the inhibition at 1 µM turned out to be 54%.
Consider `Cc1cc(-n2cc(CN3CCO[C@H](c4ccc5c(c4C)COC5=O)C3)cn2)ccc1C#N` [Example 46-I, (R)-2-methyl-4-(4-((2-(4-methyl-1-oxo-1,3-dihydroisobenzofuran-5-yl)morpholino)methyl)-1H-pyrazol-1-yl) benzonitrile], for which the IC50 at hROMK (human Kir1.1) is 26 nM. For the same molecule, the inhibition at 1 µM at hERG channels came out at 43%.
The matching figures for `Cc1cc(C#N)ccc1-n1cc(CN2CCO[C@H](c3ccc4c(c3C)COC4=O)C2)cn1` [Example 47-I, (R)-3-methyl-4-(4-((2-(4-methyl-1-oxo-1,3-dihydroisobenzofuran-5-yl)morpholino)methyl)-1H-pyrazol-1-yl) benzonitrile]: 49 nM and 49%.
The matching figures for `COc1cc(C#N)ccc1-n1cc(CN2CCO[C@H](c3ccc4c(c3C)COC4=O)C2)cn1` [Example 51-I, (R)-3-methoxy-4-(4-((2-(4-methyl-1-oxo-1,3-dihydroisobenzofuran-5-yl)morpholino)methyl)-1H-pyrazol-1-yl) benzonitrile]: 29 nM and 43%.
For `Cc1cc(-n2cc(CN3CCO[C@H](c4ccc5c(c4C)COC5=O)C3)c(C)n2)ncc1C#N` [Example 52-I, (R)-4-methyl-6-(3-methyl-4-((2-(4-methyl-1-oxo-1,3-dihydroisobenzo-furan-5-yl)morpholino)methyl)-1H-pyrazol-1-yl)nicotinonitrile], at hROMK (human Kir1.1), the half-maximal inhibitory concentration (IC50) came to 2.8 nM. Further, the inhibition at 1 µM at hERG channels amounted to 72%.
Take `Cc1c([C@@H]2CN(Cc3cnn(-c4cc(C)c5oc(=O)n(C)c5c4)c3)CCN2)ccc2c1COC2=O` [Example 57-I, (R)-3,7-dimethyl-5-(4-((3-(4-methyl-1-oxo-1,3-dihydroisobenzofuran-5-yl)piperazin-1-yl)methyl)-1H-pyrazol-1-yl)benzo[d]oxazol-2(3H)-one]: the IC50 at hROMK (human Kir1.1) worked out at 59 nM. Besides, at hERG channels, the inhibition at 1 µM is 26%.
Regarding `COc1cc(-c2ccc(CN3CCN[C@H](c4ccc5c(c4C)COC5=O)C3)cn2)ncc1C#N` [Example 63-I, (R)-4-methoxy-5′-((3-(4-methyl-1-oxo-1,3-di-hydroisobenzofuran-5-yl)piperazin-1-yl)methyl)-[2,2′-bipyridine]-5-carbonitrile], the IC50 at hROMK (human Kir1.1) amounted to 60 nM. Also, the inhibition at 1 µM at hERG channels was determined as 23%.
The matching figures for `Cc1c([C@@H]2CN(Cc3ccc(-n4cc(C#N)cn4)nc3)CCN2)ccc2c1COC2=O` [Example 64-I, (R)-1-(5-((3-(4-methyl-1-oxo-1,3-dihydroiso-benzofuran-5-yl)piper-azin-1-yl)methyl)pyri-din-2-yl)-1H-pyrazole-4-carbonitrile]: 8.8 nM and 45%.
The matching figures for `Cc1cc(-n2cc(CN3CCN(C)[C@H](c4ccc5c(c4C)COC5=O)C3)cn2)ncc1C#N` [Example 70-I, (R)-4-methyl-6-(4-((4-methyl-3-(4-methyl-1-oxo-1,3-dihydroisobenzo-furan-5-yl)piperazin-1-yl)methyl)-1H-pyra-zol-1-yl)nicotinonitrile]: 59 nM and 8.4%.
The matching figures for `Cc1cc(-n2cc(CN3CC[C@@H](O)[C@H](c4ccc5c(c4C)COC5=O)C3)nn2)ncc1C#N` [Example 84-I, 6-(4-(((3R,4R)-4-hydroxy-3-(4-methyl-1-oxo-1,3-dihydroisobenzofuran-5-yl)piperidin-1-yl)methyl)-1H-1,2,3-triazol-1-yl)-4-methylnicotinonitrile]: 52 nM and 6.7%.
As to `COc1cc(-n2cc(CN3C[C@@H](c4ccc5c(c4C)COC5=O)N[C@@H](C)C3)nn2)nc(C)c1C#N` [Example 86-I, 4-methoxy-2-methyl-6-(4-(((3S,5R)-3-methyl-5-(4-methyl-1-oxo-1,3-dihydroisobenzofur-an-5-yl)piperazin-1-yl)methyl)-1H-1,2,3-triazol-1-yl)nicotinonitrile], the IC50 at hROMK (human Kir1.1) turned out to be 64 nM. Besides, the inhibition at 1 µM on hERG channels is 8.8%.
Consider `COc1nc(-n2cc(CN3C[C@@H](c4ccc5c(c4C)COC5=O)N[C@@H](C)C3)cn2)ccc1C#N` [Example 93-I, 2-methoxy-6-(4-(((3S,5R)-3-methyl-5-(4-methyl-1-oxo-1,3-dihydroisobenzofur-an-5-yl)piperazin-1-yl)methyl)-1H-pyrazol-1-yl)nicotinonitrile], for which, on hROMK (human Kir1.1), the IC50 amounted to 44 nM. Moreover, on hERG channels, the inhibition at 1 µM amounted to 23%.
The matching figures for `Cc1nc(-n2cnc(CN3C[C@@H](c4ccc5c(c4C)COC5=O)N[C@@H](C)C3)c2)nc(C)c1C#N` [Example 95-I, 4,6-dimethyl-2-(4-(((3S,5R)-3-methyl-5-(4-methyl-1-oxo-1,3-dihydroisobenzofur-an-5-yl)piperazin-1-yl)methyl)-1H-imidazol-1-yl)pyrimidine-5-carbonitrile]: 26 nM and 13%.
The matching figures for `Cc1nc(-n2cc(CN3C[C@@H](c4ccc5c(c4C)COC5=O)N[C@@H](C)C3)cn2)ncc1C#N` [Example 96-I, 4-methyl-2-(4-(((3S,5R)-3-methyl-5-(4-methyl-1-oxo-1,3-dihydroisobenzofur-an-5-yl)piperazin-1-yl)methyl)-1H-pyrazol-1-yl)pyrimidine-5-carbonitrile]: 27 nM and 9.6%.
